Measured values as given in PubChem BioAssay AID540271 (Broad Institute, 2011).
Active and inactive are the calls of the source. No rule for the calls is given here.

test system: S. cerevisiae expressing PfHSP40, growth rescue, plate reader; test: S cerevisiae expressing PfHSP40, growth rescue, cherry pick dose confirmatory, plate reader (AID 540271);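 also: yeast growth read after three days of incubation at 30 °C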

| Compound | AC50 |
| --- | --- |
| COc1cccc(/C=N/Nc2ncc(C(F)(F)F)cc2Cl)c1O | 1.49 µM |
| Cc1cc(Cl)ccc1C(=O)C1CCCN(C(=O)c2cncs2)C1 (stereo unspecified) | 4.83 µM |
| COc1ccc2c(c1)OC[C@H]1[C@H]2N2C(=O)c3cc(Cl)ccc3NC(=O)[C@@]2(C)[C@H]1c1ccccc1 | 4.63 µM |
| COc1ccc(C(=O)NC(=S)NNC(=O)CCc2ccccc2)cc1 | 5.29 µM |
| Cc1ccc(NS(=O)(=O)c2ccc(N3CCN(c4ccc(O)cc4)CC3)c([N+](=O)[O-])c2)c(C)c1 | 7.43 µM |
| CCC(=O)NC(c1ccco1)c1cc(Cl)c2cccnc2c1O (stereo unspecified) | 2.99 µM |
| Cc1cccc2sc(NNC(=O)c3ccc(S(=O)(=O)N4CC(C)CC(C)C4)cc3)nc12 (stereo unspecified) | 1.65 µM |
| CC(=O)Oc1ccc(OC(C)=O)c(SCCCCCCl)c1 | 7.6 µM |
| Cc1n[nH]c(C)c1N=Nc1ccc(Br)cc1 | 6.88 µM |
| CC(C)(C)n1nc(-c2ccc(F)cc2)c2c(N)ncnc21 | 1.47 µM |
| CCCCCCCCCCOC(=O)Cn1c(COc2ccc(OC)cc2)[n+](C)c2ccccc21 | 6.37 µM |
| O=C1C(Nc2ccccc2)=C/C(=N/S(=O)(=O)c2cccs2)c2ccccc21 | 3.48 µM |
| COc1cc(NS(=O)(=O)c2ccc(C)cc2)c2ncccc2c1 | 5.4 µM |
| c1ccc(Nc2cccc(Nc3ccccc3)c2)cc1 | 5.81 µM |
| CCCCC(=O)NC(=S)NNC(=O)CCc1ccccc1 | 5.21 µM |
| CCN1/C(=C/c2sc(-c3ccccc3C)c[n+]2C)Sc2ccccc21 | 5.83 µM |
| C=CCN(CC=C)C(=S)NC(=O)c1ccc(OC)c(Br)c1 | 7.96 µM |
| O=C(Oc1c(Cl)cc(Cl)c2cccnc12)c1cccs1 | 1.94 µM |
| O=C(c1ccccc1)c1ccc(Cn2cc(-c3ccccc3)nn2)cc1 | 4.34 µM |
| Clc1ccc(C(Cn2ccnc2)OCc2c(Cl)cccc2Cl)c(Cl)c1 (stereo unspecified) | 0.241 µM |
| CC(C)(C)n1nc(Cc2cccc3ccccc23)c2c(N)ncnc21 | 5.46 µM |
| COc1cccc(CNC(=O)CSc2ccc(-c3ccccn3)nn2)c1 | 5.07 µM |
| CCOC(=O)N1C(=O)C2(CCCCC2)N(c2ccccc2Cl)C1=S | 0.084 µM |
| O=C1c2cccc(Cl)c2C(=O)c2c1cccc2N1CCCC1 | 4.9 µM |

| Compound | AC50 |
| --- | --- |
| CCCCCCCn1c(=O)c(C(=O)OC)c(N)c2ccccc21 | 4.64 µM |
| CC1CCc2c(C(=O)Nc3ccccn3)csc2C1 (stereo unspecified) | 9.29 µM |
| CCCCNC(=S)N/N=C1\CCCCc2ccccc21 | 10.3 µM |
| O=C(N/N=C/c1ccc[nH]1)c1sc2ccccc2c1Cl | 6.23 µM |
| O=C(c1ccccc1)N1C(=O)C(c2ccccc2)Oc2ccccc21 (stereo unspecified) | 0.937 µM |
| Nc1c(Cl)ncnc1N/N=C/c1ccc2ccccc2n1 | 5.36 µM |
| CCOC(=O)c1ccc(NC(=S)N(Cc2cccnc2)Cc2ccco2)cc1 | 6.54 µM |
| O/N=C/c1cc(Br)ccc1OCc1cccc(F)c1 | 6.89 µM |
| O=c1c2ccccc2c(-c2ccc(O)cc2)nn1-c1cccc(C(F)(F)F)c1 | 3.92 µM |
| COc1ccc(OC)c(-c2c3cc(O)c(=O)cc-3oc3cc(O)c(O)cc23)c1 | 3.79 µM |
| O=Cc1cc(N=Nc2ccccc2Cl)ccc1O | 0.768 µM |
| O=C1C(=C(I)I)c2ccccc2-c2ccccc21 | 5.61 µM |
| Clc1ccc(C2=NCCN2)cc1 | 2.38 µM |
| COc1ccccc1N(C)S(=O)(=O)c1ccc(Cl)c(C(=O)NNC(=O)c2ccccc2O)c1 | 2.64 µM |
| O=C1c2ccccc2NC(c2ccc(-c3cccc([N+](=O)[O-])c3)o2)N1O (stereo unspecified) | 4.69 µM |
| Cc1ccc(NC(=S)c2nc3ccccc3[nH]2)c(C)c1 | 6.15 µM |
| Clc1ccc(OCc2nc(-c3ccncc3)no2)c(Br)c1 | 6.2 µM |
| COC(=O)COC(=O)c1ccccc1NC(=O)c1ccccc1 | 3.13 µM |
| CC1(C)C2CCC1(C)C(OC(=O)c1ccc(O)cc1)C2 (stereo unspecified) | 4.38 µM |
| O=C(COc1ccc([N+](=O)[O-])cc1)Nc1nc(-c2ccccn2)cs1 | 5.37 µM |
| O=C1N(c2ccc(Cl)cc2)C(c2cccnc2)N2CCCN12 (stereo unspecified) | 6.03 µM |
| COc1ccc2oc(=O)c(-c3csc(Nc4cccc(O)c4)n3)cc2c1 | 4.91 µM |
| Cc1ccc(SCCNC(=S)Nc2ccc(C)c(C)c2)cc1 | 6.21 µM |
| Clc1ccc(CSC(Cn2ccnc2)c2ccc(Cl)cc2Cl)cc1 (stereo unspecified) | 0.25 µM |

| Compound | AC50 |
| --- | --- |
| O=C(CSc1ccc(-c2ccccn2)nn1)NCc1ccccc1 | 6.96 µM |
| CC(C)C(=O)NC(c1ccco1)c1ccc2cccnc2c1O (stereo unspecified) | 4.51 µM |
| O=C(O)c1ccccc1NC(c1ccccc1)c1ccc2cccnc2c1O (stereo unspecified) | 2.19 µM |
| Oc1c(Br)cc(-c2ccccc2)cc1Br | 4.93 µM |
| Cc1ccc(-c2nc3ccc(Cl)cc3c(=O)n2O)cc1 | 2.08 µM |
| Cn1nc(C(F)(F)F)c(C#N)c1N1CCN(c2ccc(F)cc2)CC1 | 7.37 µM |
| CCn1c2ccc(C)cc2c2nc3cc(C(=O)O)ccc3nc21 | 2.57 µM |
| COc1cccc2c1C(=O)c1c(O)c3c(c(O)c1C2=O)CC(O)(C(C)=O)CC3OC1CC(N(C)C)C(O)C(C)O1 (stereo unspecified) | 1.41 µM |
| COc1ccc(O)c(C(=O)CC(=O)c2ccccc2C)c1 | 6.31 µM |
| CC(=O)C1=C(c2ccc(Br)cc2)C(=O)c2ccccc2C1=O | 2.62 µM |
| C=CS(=O)(=O)c1sc(Cl)c(N2CCOCC2)c1[N+](=O)[O-] | 1.91 µM |
| CCC(C)Sc1cccc(-c2nc3ccccn3c2NCc2ccccc2)c1 (stereo unspecified) | 7.22 µM |
| Cc1nc2c(o1)C(=O)c1ccccc1C2=Nc1ccccc1 | 5.02 µM |
| O=C(CSc1ccc(-c2ccccn2)nn1)N1CCCc2ccccc21 | 3.52 µM |
| CC(=O)NC(c1cccc([N+](=O)[O-])c1)c1ccc2cccnc2c1O (stereo unspecified) | 3.95 µM |
| Cc1ccc(NC2(c3nnnn3-c3c(C)cccc3C)CCCCC2)cc1 | 6.94 µM |
| O/N=C/c1cc(Br)ccc1OCc1ccccc1F | 4.76 µM |
| CCOC(=O)c1ccc(N2C(=O)CC(N(C)CCc3ccc(OC)c(OC)c3)C2=O)cc1 (stereo unspecified) | 5.96 µM |
| Cc1[nH]n(-c2ccccc2)c(=O)c1/C=N/Nc1nncc(-c2ccccc2)n1 | 7.15 µM |
| O=C(Nc1nnc(-c2cccs2)o1)c1cccc(Oc2ccccc2)c1 | 2.57 µM |
| COC(=O)c1cccc2c1-c1ccccc1/C2=N/O | 4.95 µM |
| Clc1cccc(N/N=C(\Cc2nc3ccccc3[nH]2)c2ccccc2)c1 | 9.04 µM |
| CCOC(=O)N1CCN(S(=O)(=O)c2ccc(C(=O)NNc3nc4ccc(Cl)cc4s3)cc2)CC1 | 5.51 µM |
| CC1=NN(C(N)=S)C(=O)C1N=Nc1cccc(Cl)c1C (stereo unspecified) | 3.3 µM |

| Compound | AC50 |
| --- | --- |
| CCCS(=O)(=O)c1c(S(=O)(=O)CCC)c2c(C)cccn2c1C(=O)N/N=C/c1cc(O)cc(O)c1 | 3.51 µM |
| Cc1ccccc1Oc1nc(-c2ccccn2)nc2ccccc12 | 2.29 µM |
| Cc1ccc(Cl)cc1NC1=C/C(=N\S(=O)(=O)c2cccs2)c2ccccc2C1=O | 6.42 µM |
| CCCC(C)Sc1nc2c([nH]1)c(=S)n(C)c(=O)n2C (stereo unspecified) | 8.18 µM |
| CCC(C)c1ccc(NC(=S)NCCn2cc(Br)cn2)cc1 (stereo unspecified) | 10.1 µM |
| CCc1ccc([C@@H]2CC=C(C(=O)O)[C@H](c3ccc(Cl)cc3)N2S(=O)(=O)c2ccc(C)cc2)cc1 | 5.39 µM |
| COc1cc(NC(=O)CSc2ccc(-c3ccccn3)nn2)cc(OC)c1 | 1.59 µM |
| Cc1ccc(-c2cc(-c3ccc(C)cc3)[n+](-c3ccccc3)c(-c3ccc(C)cc3)c2)cc1 | 5.4 µM |
| S=C(NCc1ccco1)Nc1ccc(Oc2ccc(Cl)cc2)cc1 | 7.02 µM |
| CC(=O)c1c(C)oc2c1C(=O)c1ccccc1C2=O | 5.09 µM |
| N#C/C(=C\Nc1ccccc1O)c1nc2ccccc2o1 | 9.96 µM |
| CC1CCCCC1NC(=O)/C(C#N)=C/c1ccccc1F (stereo unspecified) | 5.7 µM |
| CCCSC(=S)c1c(C)[nH]n(-c2ccccc2)c1=O | 5.46 µM |
| Oc1ccccc1-c1cc(-c2ccc3c(c2)OCCO3)n[nH]1 | 5.24 µM |
| CCCn1nc(C(=O)N2CCN(S(=O)(=O)c3ccc(C)c(C)c3)CC2)c2ccccc2c1=O | 6.13 µM |
| CCOC(=O)c1c2c(n(-c3ccc(OC)cc3)c1C)C(=O)C(=O)c1ccccc1-2 | 3.97 µM |
| Cc1nn2c(-c3ccncc3)nnc2c2ccccc12 | 7.28 µM |
| CC1(C)C=Cc2c(ccc3c2OC[C@@H](c2ccc(O)cc2O)C3)O1 | 5.69 µM |
| CCCOc1ccc(S(=O)(=O)n2cc(F)c(=O)[nH]c2=O)cc1 | 3.66 µM |
| O=[N+]([O-])c1cccc(-c2cc(-c3cc(Br)ccc3O)[nH]n2)c1 | 5.44 µM |
| CCC(C)n1ncn(-c2ccc(N3CCN(c4ccc(OCC5COC(Cn6cncn6)(c6ccc(Cl)cc6Cl)O5)cc4)CC3)cc2)c1=O (stereo unspecified) | 0.129 µM |
| Cc1c(C(=O)O)cccc1-c1ccc(/C=N/Nc2ccc(Br)cc2)o1 | 6.31 µM |
| NNC(=O)c1ccc2nc(-c3ccc(Br)cc3)cn2c1 | 6.47 µM |
| CC(/C=N/n1c(COc2ccccc2)n[nH]c1=S)=C\c1ccccc1 | 4.55 µM |

| Compound | AC50 |
| --- | --- |
| CSC(=S)N/N=C/c1ccccc1 | 5.83 µM |
| O=C(N/N=C/c1sc(N2CCOCC2)nc1-c1ccccc1)c1ccccc1O | 6.17 µM |
| Cc1cc(C)c2sc(NNC(=O)c3ccc(S(=O)(=O)N4CCc5ccccc5C4)cc3)nc2c1 | 1.48 µM |
| CCC(NC(=S)NCc1ccc(F)cc1)c1ccc(C(C)C)cc1 (stereo unspecified) | 5.15 µM |
| CC12CCC(O)CC1=CCC1C2CCC2(C)C3=NN=CC3CC12 (stereo unspecified) | 11.4 µM |
| Cc1cc([N+](=O)[O-])c(NC2CCCCC2)c([N+](=O)[O-])c1 | 9.82 µM |
| Clc1nc(-c2ccccn2)nc2scc(-c3ccccc3)c12 | 5.78 µM |
| O=C(CSc1ccc(-c2ccccn2)nn1)NC1CCCCC1 | 4.21 µM |
| COc1ccc(C2=CC(=O)C[C@H](c3ccc4c(c3)OCO4)C2)cc1 | 6.93 µM |
| O/N=C(\c1ccc(Cl)cc1)c1cc2ccccc2o1 | 5.38 µM |
| COc1cccc(C(C)=C2SC(=S)NC2=O)c1 | 9.37 µM |
| CC[n+]1c(/C=C/C=C/c2ccc(N(C)C)cc2)sc2ccccc21 | 3.71 µM |
| COc1ccc(OC)c2c1C(=O)C(Cl)=C(Cl)C2=O | 1.4 µM |
| COc1ccc2c(c1)S/C(=C\C(=O)c1ccncc1)N2C | 5.21 µM |
| COc1ccc2c(c1)OC[C@H]1[C@H]2N2C(=O)c3cc(C)ccc3NC(=O)[C@@]2(C)[C@H]1c1ccccc1 | 6.11 µM |
| COc1ccc(C(=O)c2c(C(F)(F)F)oc3c2C(=O)c2ccccc2C3=O)cc1OC | 6.24 µM |
| CCc1sc(C(=O)Nc2nc(-c3ccccn3)cs2)cc1C | 1.82 µM |
| O=c1c(-c2cccc3ccccc23)[n+]([O-])c2ccccc2n1O | 10.4 µM |
| O=c1c(/C=N/O)coc2ccc(Cl)cc12 | > 12 µM (inactive) |
| CC(C)(C)c1ccc(C(=O)NC(=S)NNC(=O)c2cccs2)cc1 | 1.89 µM |
